{"source": "patent US10031417B2", "about": "“Compound, colorant including the same, positive photosensitive resin composition including the same and color filter” (SAMSUNG SDI CO., LTD., priority 2016, dated 2018)", "assay": "Solubility measurement in diluting solvents", "assay_type": "physicochemical", "conditions": "25° C., 100 rpm, 1 hour, 0.5 g of compound added", "experimental": "0.5 g of each compound according to Synthesis Examples 1 to 3 was respectively added to diluting solvents (MeOH, CH2Cl2, cyclohexanone), each solution was stirred with a rotary mixer (Mixrotar VMR-5, Iuchi Seieido Co., Ltd.) at 25° C. and 100 rpm for 1 hour, and then, the dissolution state of each compound (the amount of the compound dissolved in the solvents) was examined, and the results are provided in Table 1."}
{"smiles": "CCN(CCOC(=O)NC1CCCCC1)c1ccc2c(-c3ccccc3S(=O)(=O)[O-])c3ccc(=[N+](CC)CC)cc-3oc2c1", "note": "[Chemical Formula 6]", "values": [{"measurement": "Amount of dissolved compound", "setting": "CH2Cl2", "value": ">7", "unit": "% wt %"}, {"measurement": "Amount of dissolved compound", "setting": "Cyclohexanone", "value": 3, "unit": "% wt %"}, {"measurement": "Amount of dissolved compound", "setting": "MeOH", "value": ">7", "unit": "% wt %"}]}
{"smiles": "CCN(CCOC(=O)Nc1ccccc1)c1ccc2c(-c3ccccc3S(=O)(=O)[O-])c3cc/c(=[N+](/CC)CCOC(=O)Nc4ccccc4)cc-3oc2c1", "note": "[Chemical Formula 10]", "values": [{"measurement": "Amount of dissolved compound", "setting": "CH2Cl2", "value": ">10", "unit": "% wt %"}, {"measurement": "Amount of dissolved compound", "setting": "Cyclohexanone", "value": 3, "unit": "% wt %"}, {"measurement": "Amount of dissolved compound", "setting": "MeOH", "value": ">10", "unit": "% wt %"}]}
{"smiles": "CCN(CCOC(=O)NC(C)(C)C)c1ccc2c(-c3ccccc3S(=O)(=O)[O-])c3ccc(=[N+](CC)CC)cc-3oc2c1", "note": "[Chemical Formula 5]", "values": [{"measurement": "Amount of dissolved compound", "setting": "CH2Cl2", "value": ">7", "unit": "% wt %"}, {"measurement": "Amount of dissolved compound", "setting": "Cyclohexanone", "value": 3, "unit": "% wt %"}, {"measurement": "Amount of dissolved compound", "setting": "MeOH", "value": ">7", "unit": "% wt %"}]}
{"smiles": "CCN(CCOC(=O)Nc1ccccc1)c1ccc2c(-c3ccccc3S(=O)(=O)[O-])c3ccc(=[N+](CC)CC)cc-3oc2c1", "note": "[Chemical Formula 7]", "values": [{"measurement": "Amount of dissolved compound", "setting": "CH2Cl2", "value": ">7", "unit": "% wt %"}, {"measurement": "Amount of dissolved compound", "setting": "Cyclohexanone", "value": 2, "unit": "% wt %"}, {"measurement": "Amount of dissolved compound", "setting": "MeOH", "value": ">7", "unit": "% wt %"}]}
{"smiles": "CCN(CCOC(=O)NC(C)(C)C)c1ccc2c(-c3ccccc3S(=O)(=O)[O-])c3cc/c(=[N+](/CC)CCOC(=O)NC(C)(C)C)cc-3oc2c1", "note": "[Chemical Formula 8]", "values": [{"measurement": "Amount of dissolved compound", "setting": "CH2Cl2", "value": ">10", "unit": "% wt %"}, {"measurement": "Amount of dissolved compound", "setting": "Cyclohexanone", "value": 5, "unit": "% wt %"}, {"measurement": "Amount of dissolved compound", "setting": "MeOH", "value": ">10", "unit": "% wt %"}]}
{"smiles": "CCN(CCOC(=O)NC1CCCCC1)c1ccc2c(-c3ccccc3S(=O)(=O)[O-])c3cc/c(=[N+](/CC)CCOC(=O)NC4CCCCC4)cc-3oc2c1", "note": "[Chemical Formula 9]", "values": [{"measurement": "Amount of dissolved compound", "setting": "CH2Cl2", "value": ">10", "unit": "% wt %"}, {"measurement": "Amount of dissolved compound", "setting": "Cyclohexanone", "value": 5, "unit": "% wt %"}, {"measurement": "Amount of dissolved compound", "setting": "MeOH", "value": ">10", "unit": "% wt %"}]}
